Measured values from the supplement of paper PMC9013687.

What was measured:
Danio rerio embryo [1] = experiment: EC20 Yolk sac size_Increase; higher = less potent; conditions: exposure time: 4 dpf
Procedure: (§1)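 Zebrafish embryos (UFZ-OBI strain) were exposed from 2 hpf for 48 h (2 dpf) or 96 h (4 dpf) at 28 °C; spontaneous tail coiling was scored at 25 hpf. Morphological features from automated image analysis (FishInspector), heart rate and locomotor response were fitted with drc models. Quantal endpoints were dichotomised at 2.5 SD from controls and fitted with a log-logistic model; heart rate, pigmentation and STC were normalised to the replicate control mean. Betamethasone was tested as betamethasone dipropionate, diflorasone as diflorasone diacetate.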

Danio rerio embryo [2] = experiment: EC20 Body length_Decrease; higher = less potent
Procedure: as §1

Danio rerio embryo [3] = experiment: EC20 Any effect; higher = less potent
Procedure: as §1

Danio rerio embryo [4] = experiment: EC10 Pericard size_Increase; higher = less potent; conditions: exposure time: 4 dpf
Procedure: as §1

Danio rerio embryo [5] = experiment: EC20 LMR dark; higher = less potent; conditions: exposure time: 4 dpf
Procedure: as §1

Danio rerio embryo [6] = experiment: EC50 Otolith-eye distance_Decrease; conditions: exposure time: 4 dpf
Procedure: as §1

Danio rerio embryo [7] = experiment: EC50 Curvature_Increase; conditions: exposure time: 2 dpf
Procedure: as §1

Danio rerio embryo [8] = experiment: EC10 LMR dark; higher = less potent; conditions: exposure time: 4 dpf
Procedure: as §1

Danio rerio embryo [9] = experiment: EC20 Pericard size_Increase; higher = less potent; conditions: exposure time: 4 dpf
Procedure: as §1

Danio rerio embryo [10] = experiment: EC10 Otolith-eye distance_Decrease; higher = less potent; conditions: exposure time: 4 dpf
Procedure: as §1

Danio rerio embryo [11] = experiment: EC10 Curvature_Increase; higher = less potent; conditions: exposure time: 2 dpf
Procedure: as §1

Danio rerio embryo [12] = system: Danio rerio embryo
Procedure: as §1

Danio rerio embryo [13] = experiment: EC20 Eye-jaw distance_Decrease; higher = less potent; conditions: exposure time: 4 dpf
Procedure: as §1

Danio rerio embryo [14] = experiment: EC20 Bladder size_Decrease; higher = less potent; conditions: exposure time: 4 dpf
Procedure: as §1

Danio rerio embryo [15] = experiment: EC20 Otolith-eye distance_Decrease; higher = less potent; conditions: exposure time: 4 dpf
Procedure: as §1

Danio rerio embryo [16] = experiment: EC10 Bladder size_Decrease; higher = less potent; conditions: exposure time: 4 dpf
Procedure: as §1

Danio rerio embryo [17] = experiment: EC20 Curvature_Increase; higher = less potent; conditions: exposure time: 2 dpf
Procedure: as §1

Danio rerio embryo [18] = experiment: EC50 Pericard size_Increase; conditions: exposure time: 4 dpf
Procedure: as §1

Danio rerio embryo [19] = experiment: EC50 Body length_Decrease
Procedure: as §1

Danio rerio embryo [20] = experiment: EC50 Yolk sac size_Increase; conditions: exposure time: 4 dpf
Procedure: as §1

Danio rerio embryo [21] = experiment: EC10 Body length_Decrease; higher = less potent
Procedure: as §1

Danio rerio embryo [22] = conditions: exposure time: 4 dpf
Procedure: as §1

Danio rerio embryo [23] = experiment: EC10 Any effect; higher = less potent
Procedure: as §1

Danio rerio embryo [24] = experiment: spontaneous tail coiling frequency (coils/min/embryo); higher = more spontaneous movement; conditions: 25 hpf
Procedure: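 Spontaneous tail coilings of zebrafish embryos exposed from 2 hpf were recorded at 24-25 hpf in 1-min videos and detected by a KNIME workflow from grey-value variance. Betamethasone was tested as the dipropionate, diflorasone as the diacetate.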

Danio rerio embryo [25] = experiment: EC10 Yolk sac size_Increase; higher = less potent; conditions: exposure time: 4 dpf
Procedure: as §1

Danio rerio embryo [26] = experiment: EC50 Eye-jaw distance_Decrease; conditions: exposure time: 4 dpf
Procedure: as §1

Danio rerio embryo [27] = experiment: EC50 Bladder size_Decrease; conditions: exposure time: 4 dpf
Procedure: as §1

Danio rerio embryo [28] = experiment: EC10 Eye-jaw distance_Decrease; higher = less potent; conditions: exposure time: 4 dpf
Procedure: as §1

CCOC(=O)N1CCC(=C2c3ccc(Cl)cc3CCc3cccnc32)CC1 [Loratadine]
Conditions	EC10 Bladder size Decrease [µM]	EC10 Curvature Increase [µM]	EC10 Eye-jaw distance Decrease [µM]	EC10 LMR dark [µM]	EC10 Otolith-eye distance Decrease [µM]	EC10 Pericard size Increase [µM]	EC10 Yolk sac size Increase [µM]	EC20 Bladder size Decrease [µM]	EC20 Curvature Increase [µM]	EC20 Eye-jaw distance Decrease [µM]	EC20 LMR dark [µM]	EC20 Otolith-eye distance Decrease [µM]	EC20 Pericard size Increase [µM]	EC20 Yolk sac size Increase [µM]	EC50 Bladder size Decrease [µM]	EC50 Curvature Increase [µM]	EC50 Eye-jaw distance Decrease [µM]	EC50 LMR dark [µM]	EC50 Otolith-eye distance Decrease [µM]	EC50 Pericard size Increase [µM]	EC50 Yolk sac size Increase [µM]
Danio rerio embryo [1]	–	–	–	–	–	–	–	–	–	–	–	–	–	6.74	–	–	–	–	–	–	–
Danio rerio embryo [4]	–	–	–	–	–	3.01	–	–	–	–	–	–	–	–	–	–	–	–	–	–	–
Danio rerio embryo [5]	–	–	–	–	–	–	–	–	–	–	0.318	–	–	–	–	–	–	–	–	–	–
Danio rerio embryo [6]	–	–	–	–	–	–	–	–	–	–	–	–	–	–	–	–	–	–	5.49	–	–
Danio rerio embryo [7]	–	–	–	–	–	–	–	–	–	–	–	–	–	–	–	6.62	–	–	–	–	–
Danio rerio embryo [8]	–	–	–	0.279	–	–	–	–	–	–	–	–	–	–	–	–	–	–	–	–	–
Danio rerio embryo [9]	–	–	–	–	–	–	–	–	–	–	–	–	4.72	–	–	–	–	–	–	–	–
Danio rerio embryo [10]	–	–	–	–	4.17	–	–	–	–	–	–	–	–	–	–	–	–	–	–	–	–
Danio rerio embryo [11]	–	3.56	–	–	–	–	–	–	–	–	–	–	–	–	–	–	–	–	–	–	–
Danio rerio embryo [13]	–	–	–	–	–	–	–	–	–	5.67	–	–	–	–	–	–	–	–	–	–	–
Danio rerio embryo [14]	–	–	–	–	–	–	–	0.201	–	–	–	–	–	–	–	–	–	–	–	–	–
Danio rerio embryo [15]	–	–	–	–	–	–	–	–	–	–	–	4.62	–	–	–	–	–	–	–	–	–
Danio rerio embryo [16]	0.165	–	–	–	–	–	–	–	–	–	–	–	–	–	–	–	–	–	–	–	–
Danio rerio embryo [17]	–	–	–	–	–	–	–	–	4.48	–	–	–	–	–	–	–	–	–	–	–	–
Danio rerio embryo [18]	–	–	–	–	–	–	–	–	–	–	–	–	–	–	–	–	–	–	–	10.2	–
Danio rerio embryo [20]	–	–	–	–	–	–	–	–	–	–	–	–	–	–	–	–	–	–	–	–	11.6
Danio rerio embryo [22]	–	–	–	–	–	–	–	–	–	–	–	–	–	–	–	–	–	0.399	–	–	–
Danio rerio embryo [25]	–	–	–	–	–	–	4.91	–	–	–	–	–	–	–	–	–	–	–	–	–	–
Danio rerio embryo [26]	–	–	–	–	–	–	–	–	–	–	–	–	–	–	–	–	6.86	–	–	–	–
Danio rerio embryo [27]	–	–	–	–	–	–	–	–	–	–	–	–	–	–	0.282	–	–	–	–	–	–
Danio rerio embryo [28]	–	–	5.07	–	–	–	–	–	–	–	–	–	–	–	–	–	–	–	–	–	–

Conditions	EC10 Any effect [µM]	EC10 Body length Decrease [µM]	EC20 Any effect [µM]	EC20 Body length Decrease [µM]	EC50 Any effect [µM]	EC50 Body length Decrease [µM]	EC50 STC decrease [µM]	spontaneous tail coiling frequency
Danio rerio embryo [2], exposure time: 2 dpf	–	–	–	6	–	–	–	–
Danio rerio embryo [2], exposure time: 4 dpf	–	–	–	0.404	–	–	–	–
Danio rerio embryo [3], exposure time: 2 dpf	–	–	5.01	–	–	–	–	–
Danio rerio embryo [3], exposure time: 4 dpf	–	–	0.398	–	–	–	–	–
Danio rerio embryo [12], exposure time: 2 dpf	–	–	–	–	6.4	–	–	–
Danio rerio embryo [12], exposure time: 4 dpf	–	–	–	–	0.438	–	–	–
Danio rerio embryo [12], exposure time: 25 h	–	–	–	–	–	–	6.63	–
Danio rerio embryo [19], exposure time: 2 dpf	–	–	–	–	–	7.83	–	–
Danio rerio embryo [19], exposure time: 4 dpf	–	–	–	–	–	0.442	–	–
Danio rerio embryo [21], exposure time: 2 dpf	–	5.13	–	–	–	–	–	–
Danio rerio embryo [21], exposure time: 4 dpf	–	0.383	–	–	–	–	–	–
Danio rerio embryo [23], exposure time: 2 dpf	4.34	–	–	–	–	–	–	–
Danio rerio embryo [23], exposure time: 4 dpf	0.376	–	–	–	–	–	–	–
Danio rerio embryo [24], 0.155 µM	–	–	–	–	–	–	–	2.97
Danio rerio embryo [24], 0.31 µM	–	–	–	–	–	–	–	1.28
Danio rerio embryo [24], 0.61 µM	–	–	–	–	–	–	–	1.66
Danio rerio embryo [24], 1.22 µM	–	–	–	–	–	–	–	1.82
Danio rerio embryo [24], 2.45 µM	–	–	–	–	–	–	–	2.58
Danio rerio embryo [24], 4.9 µM	–	–	–	–	–	–	–	1.79
Danio rerio embryo [24], 9.79 µM	–	–	–	–	–	–	–	0.505
